One test has as its system Phospholipase aus Leberzellen.
Test: not given
Conditions: phospholipase from liver cells; Biochem. Pharmacol. 34, 521-24, 1985; cited from earlier work.
With `CC(C)NCC(O)COc1cccc2ccccc12` (stereo not shown) [Propranolol], the Hemmwirkung result was “wirksamste Substanz”.

A further test concerns Candida albicans. The test can be described thus: Systemic Candida albicans infection in the mouse, survival time, combination therapy with Fluconazol. Format: in vivo, Maus. Conditions: combination therapy with Fluconazol versus Fluconazol monotherapy; compound 14 x 50 mg/kg p.o. once daily. The source says:
Als Beispiele für die systemische in vivo-Wirksamkeit der Verbindungen dient die systemische Candida albicans Infektion bei der Maus.
Ziel dieser Methode ist es, den Effekt von Präparaten auf eine systemische Candida albicans Infektion zu ermitteln. Die Infektion führt innerhalb von 2-4 Tagen zum Tod der Tiere.
Beschreibung der Methode: Albino Mäuse (NMRI, Männchen, 15-20 g Körpergewicht) werden intravenös mit Candida albicans Hefezellen infiziert (Stamm 200/175), die frisch auf Malzagar vorkultiviert wurden und in physiologischer Kochsalzlösung suspendiert wurden. Die Infektionsdosis, die in dem angegebenen Zeitrahmen zur Lethalität führt, wurde photometrisch eingestellt und enthielt eine Million Hefezellen pro Maus.
Die zu prüfenden Verbindungen werden entweder alleine oder in Kombination mit einem Standardantimykotikum verabreicht. Im durchgeführten Test wurde ein Kombinationspräparat verwendet, wobei als Standardantimykotikum Fluconazol (Fa. Pfizer) diente. Applikationswege sind je nach Substanzgruppe unterschiedlich, wobei der oralen Applikation der Vorzug gegeben wird. Die Mäuse werden 4 Wochen beobachtet, die Mortalität wird täglich registriert, und die Überlebenszeiten der einzelnen Gruppen werden gemittelt und untereinander verglichen. Gruppengröße beträgt durchschnittlich 10 Tiere.
Der Vergleich der Mittelwerte geschieht mit dem Students T Test.
Dosierungen: Fluconazol jeweils 9 x p.o. 50 mg/kg/Tag Kombinationspartner jeweils 14 x p.o. 50 mg/kg /Tag
Regarding `CCCCNCC(O)(c1ccc(Cl)cc1)C1(SCc2ccc(Cl)cc2)CC1` (stereo not shown) [Verbindung 1.4], the “Verlängerung der Überlebenszeit” value was 57%.

Staying with this test, now noted: mice infected i.v. with C. albicans; Fluconazol 9 x p.o. 50 mg/kg/day; combination partner 14 x p.o. 50 mg/kg/day.
With `CCCCNCC(O)(c1ccc(Cl)cc1)C1(SCc2ccc(Cl)cc2)CC1` (stereo not shown) [Verbindung 1.4], the “Überlebenszeit (bez. auf Fluconazol = 100 %)” value amounted to 157%.

In the case of `OC(Cn1cncn1)(Cn1cncn1)c1ccc(F)cc1F` [Fluconazol, reference compound], the “Überlebenszeit (bez. auf Fluconazol = 100 %)” value came to 100%.

The test system of a further test is Trichophyton Mentagrophytes. The test can be described thus: Fungicidal (killing) effect on resting stages (microconidia) of Trichophyton Mentagrophytes, overnight incubation in aqua dest., survival after wash-out. The test is classed as cell-based. Conditions: 5 µg/ml, read-out: Fungizidie (pilzabtötende Wirkung). An excerpt: Die Fungizide (pilzabtötende Wirkung) der Verbindungendes Typs der Formel I wird bestimmt, indem Ruhestadien (Vermehrungsform ist gleich Mikrokonidien) des Pilzes Trichophyton Mentagrophytes in aqua dest. über Nacht inkubiert werden. Nach Auswaschen des Präparats (vgl. H. Hänel und W. Raether in mycoses 31 (3), 148-154 (1988)) wird auf Überleben der Pilze geprüft.
Einige auf diese Weise bestimmte Werte sind in Tabelle 4 wiedergegeben (Vergleichspräparat ist Rilopirox).
With `Cc1cc(COc2ccc(Oc3ccc(Cl)cc3)cc2)n(O)c(=O)c1` [Rilopirox, reference compound], the killing at 5 µg/mL amounted to 96.2%.

Regarding `CC(C)OCCCNCC(O)(c1ccc(Cl)cc1)C1(SCc2ccc(C(C)(C)C)cc2)CC1` (stereo not shown) [Verbindung 1.35], the killing at 5 µg/mL stood at 99.3%.

The same test, now with this note: 10 µg/ml, read-out: Fungizidie (pilzabtötende Wirkung).
Take `CC(C)(C)NCC(O)(c1ccc(Cl)cc1)C1(SCc2ccc(C(C)(C)C)cc2)CC1` (stereo not shown) [Verbindung 1.36]: the killing at 10 µg/mL came to 96.5%.

In the case of `Cc1cc(COc2ccc(Oc3ccc(Cl)cc3)cc2)n(O)c(=O)c1` [Rilopirox, reference compound], the killing at 10 µg/mL came to 100%.

Take `CC(C)(C)NCC(O)(c1ccc(Cl)cc1)C1(SCc2ccc(Cl)cc2F)CC1` (stereo not shown) [Verbindung 1.44]: the killing at 10 µg/mL is 99.1%.

For the molecule `CC(C)OCCCNCC(O)(c1ccc(Cl)cc1)C1(SCc2ccc(C(C)(C)C)cc2)CC1` (stereo not shown) [Verbindung 1.35], the killing at 10 µg/mL was found to be 100%.

As to `CC(C)NCC(O)(c1ccc(Cl)cc1)C1(SCc2cccc(C(F)(F)F)c2)CC1` (stereo not shown) [Verbindung 1.17], the killing at 10 µg/mL is 96.9%.

Turning to `CCCCNCC(O)(c1ccc(Cl)cc1)C1(SCc2ccc(C(C)(C)C)cc2)CC1` (stereo not shown) [Verbindung 1.29], the killing at 10 µg/mL turned out to be 99.7%.

Take `CCCCNCC(O)(c1ccc(C)cc1)C1(SCc2cccc(C(F)(F)F)c2)CC1` (stereo not shown) [Verbindung 1.48]: the killing at 10 µg/mL worked out at 99.4%.

Still in this test, the particulars now being: 20 µg/ml, read-out: Fungizidie (pilzabtötende Wirkung).
In the case of `CC(C)(C)NCC(O)(c1ccc(Cl)cc1)C1(SCc2ccc(C(C)(C)C)cc2)CC1` (stereo not shown) [Verbindung 1.36], the killing at 20 µg/mL was found to be 100%.

Turning to `Cc1cc(COc2ccc(Oc3ccc(Cl)cc3)cc2)n(O)c(=O)c1` [Rilopirox, reference compound], the killing at 20 µg/mL amounted to 100%.

`CC(C)(C)NCC(O)(c1ccc(Cl)cc1)C1(SCc2ccc(Cl)cc2F)CC1` (stereo not shown) [Verbindung 1.44]: the killing at 20 µg/mL amounted to 100%.

For the molecule `CC(C)OCCCNCC(O)(c1ccc(Cl)cc1)C1(SCc2ccc(C(C)(C)C)cc2)CC1` (stereo not shown) [Verbindung 1.35], the killing at 20 µg/mL turned out to be 100%.

On to `CC(C)NCC(O)(c1ccc(Cl)cc1)C1(SCc2cccc(C(F)(F)F)c2)CC1` (stereo not shown) [Verbindung 1.17], for which the killing at 20 µg/mL is 100%.

On to `CCCCNCC(O)(c1ccc(Cl)cc1)C1(SCc2ccc(C(C)(C)C)cc2)CC1` (stereo not shown) [Verbindung 1.29], for which the killing at 20 µg/mL is 100%.

For `CCCCNCC(O)(c1ccc(C)cc1)C1(SCc2cccc(C(F)(F)F)c2)CC1` (stereo not shown) [Verbindung 1.48], the killing at 20 µg/mL stood at 100%.

The test is the same for the next values; noted with them: 40 µg/ml, read-out: Fungizidie (pilzabtötende Wirkung).
On to `CC(C)(C)NCC(O)(c1ccc(Cl)cc1)C1(SCc2ccc(C(C)(C)C)cc2)CC1` (stereo not shown) [Verbindung 1.36], for which the killing at 40 µg/mL was 100%.

As for `Cc1cc(COc2ccc(Oc3ccc(Cl)cc3)cc2)n(O)c(=O)c1` [Rilopirox, reference compound], the killing at 40 µg/mL came out at 100%.

For the molecule `CC(C)(C)NCC(O)(c1ccc(Cl)cc1)C1(SCc2ccc(Cl)cc2F)CC1` (stereo not shown) [Verbindung 1.44], the killing at 40 µg/mL turned out to be 100%.

For `CC(C)OCCCNCC(O)(c1ccc(Cl)cc1)C1(SCc2ccc(C(C)(C)C)cc2)CC1` (stereo not shown) [Verbindung 1.35], the killing at 40 µg/mL came to 100%.

Regarding `CC(C)NCC(O)(c1ccc(Cl)cc1)C1(SCc2cccc(C(F)(F)F)c2)CC1` (stereo not shown) [Verbindung 1.17], the killing at 40 µg/mL was 100%.

For `CCCCNCC(O)(c1ccc(Cl)cc1)C1(SCc2ccc(C(C)(C)C)cc2)CC1` (stereo not shown) [Verbindung 1.29], the killing at 40 µg/mL is 100%.

`CCCCNCC(O)(c1ccc(C)cc1)C1(SCc2cccc(C(F)(F)F)c2)CC1` (stereo not shown) [Verbindung 1.48]: the killing at 40 µg/mL is 100%.

Still in this test, the particulars now being: 80 µg/ml, read-out: Fungizidie (pilzabtötende Wirkung).
`CC(C)(C)NCC(O)(c1ccc(Cl)cc1)C1(SCc2ccc(C(C)(C)C)cc2)CC1` (stereo not shown) [Verbindung 1.36]: the killing at 80 µg/mL is 100%.

As for `Cc1cc(COc2ccc(Oc3ccc(Cl)cc3)cc2)n(O)c(=O)c1` [Rilopirox, reference compound], the killing at 80 µg/mL amounted to 100%.

Regarding `CC(C)(C)NCC(O)(c1ccc(Cl)cc1)C1(SCc2ccc(Cl)cc2F)CC1` (stereo not shown) [Verbindung 1.44], the killing at 80 µg/mL was found to be 100%.

Take `CC(C)OCCCNCC(O)(c1ccc(Cl)cc1)C1(SCc2ccc(C(C)(C)C)cc2)CC1` (stereo not shown) [Verbindung 1.35]: the killing at 80 µg/mL amounted to 100%.

With `CC(C)NCC(O)(c1ccc(Cl)cc1)C1(SCc2cccc(C(F)(F)F)c2)CC1` (stereo not shown) [Verbindung 1.17], the killing at 80 µg/mL stood at 100%.

As for `CCCCNCC(O)(c1ccc(Cl)cc1)C1(SCc2ccc(C(C)(C)C)cc2)CC1` (stereo not shown) [Verbindung 1.29], the killing at 80 µg/mL came out at 100%.

`CCCCNCC(O)(c1ccc(C)cc1)C1(SCc2cccc(C(F)(F)F)c2)CC1` (stereo not shown) [Verbindung 1.48]: the killing at 80 µg/mL came out at 100%.

The record behind these values is EP0488169A1, “Beta-Hydroxyethylamines with a 1,1-disubstituted cyclopropyl-group, process for their preparation and use” (HOECHST AKTIENGESELLSCHAFT, priority 1990, dated 1992).
